This passage reports inhibition results from EP2272817A1, “PAI-1 INHIBITOR” (Institute of Medicinal Molecular Design, Inc., priority 2008, dated 2009).

Where two headings read alike, the source gives them in different places.

Usually inhibition stands for the drop in the measured response relative to a control, in per cent.

For the assay, the target named is recombinant human PAI-1 (Homo sapiens, UniProt P05121). Put plainly: biochemical.
Where [1] appears, read: read-out: Inhibition Rate of PAI Activity (%).
The mark [2] stands for this setting: read-out: Inhibition Rate of PAI-1 Activity (%).
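Further: PAI-1 preincubated with compound, then two-chain tPA added, residual tPA activity read with fluorogenic Pyr-Gly-Arg-MCA substrate after 30 min at room temperature.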

Chain of recombinant human PAI-1 (P05121 24-402): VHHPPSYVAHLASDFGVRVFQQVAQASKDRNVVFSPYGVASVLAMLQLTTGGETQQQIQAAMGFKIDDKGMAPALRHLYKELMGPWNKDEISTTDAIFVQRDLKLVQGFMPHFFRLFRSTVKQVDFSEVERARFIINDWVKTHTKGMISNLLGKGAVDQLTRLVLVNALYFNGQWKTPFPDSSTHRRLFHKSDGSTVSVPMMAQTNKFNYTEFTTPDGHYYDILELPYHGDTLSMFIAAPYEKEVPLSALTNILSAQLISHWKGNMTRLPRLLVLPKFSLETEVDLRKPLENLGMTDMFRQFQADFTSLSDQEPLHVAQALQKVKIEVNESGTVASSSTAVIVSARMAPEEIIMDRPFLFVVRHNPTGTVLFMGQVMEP

Regarding `Cc1cc(C)cc(COc2ccc(-c3ccc(OC(F)(F)F)cc3)cc2CC(=O)O)c1` [Compound 11], under setting [1], the inhibition at 5 µM came to 41%, the inhibition at 10 µM worked out at 84% and the inhibition at 25 µM was 99%.

Turning to `O=C(O)C(=O)N(Cc1ccc(OC(F)(F)F)cc1)c1ccc(-c2ccc(OC(F)(F)F)cc2)cc1` [Compound 159], under setting [2], the inhibition at 5 µM was found to be 21%, the inhibition at 10 µM came to 45% and the inhibition at 25 µM turned out to be 92%.

In the case of `CC(C)(C)c1ccc(-c2ccc(N(Cc3ccccc3)C(=O)C(=O)O)cc2)cc1` [Compound 156], under setting [2], the inhibition at 5 µM is 10%, the inhibition at 10 µM was 25% and the inhibition at 25 µM stood at 67%.

In the case of `O=C(O)CCc1cc(-c2ccc(OC(F)(F)F)cc2)ccc1OCc1ccc(OC(F)(F)F)cc1` [Compound 62], under setting [1], the inhibition at 5 µM is 29%, the inhibition at 10 µM amounted to 62% and the inhibition at 25 µM came out at 99%.

Consider `CC(C)(C)c1ccc(-c2ccc(N(Cc3ccc(C(F)(F)F)cc3)C(=O)C(=O)O)cc2)cc1` [Compound 205], for which, under setting [2], the inhibition at 5 µM came to 50%, the inhibition at 10 µM was 80% and the inhibition at 25 µM was found to be 98%.

`O=C(O)C(=O)N(CCc1ccccc1)c1ccc(-c2ccc(OC(F)(F)F)cc2)cc1` [Compound 223]: under setting [2], the inhibition at 5 µM worked out at 13% and the inhibition at 10 µM came to 27%.

As for `CC(C)(C)c1ccc(CN(C(=O)C(=O)O)c2ccc(-c3ccc(OC(F)(F)F)cc3)c(CCC(=O)O)c2)cc1` [Compound 196], under setting [2], the inhibition at 5 µM stood at 18%, the inhibition at 10 µM is 35% and the inhibition at 25 µM is 64%.

`O=C(O)CCc1cc(-c2ccc(OC(F)(F)F)cc2)ccc1OCCCc1ccccc1` [Compound 101]: under setting [2], the inhibition at 5 µM was determined as 42%, the inhibition at 10 µM worked out at 73% and the inhibition at 25 µM was > 99%.

For the molecule `CCCOc1ccc(N(CCCc2ccccc2)C(=O)C(=O)O)c(-c2ccc(OC(F)(F)F)cc2)c1` [Compound 232], under setting [2], the inhibition at 5 µM came to 52%, the inhibition at 10 µM was determined as 82% and the inhibition at 25 µM was 96%.

In the case of `O=C(O)COc1cc(-c2ccc(OC(F)(F)F)cc2)ccc1OCCCCc1ccccc1` [Compound 115], under setting [2], the inhibition at 5 µM was 34%, the inhibition at 10 µM was 59% and the inhibition at 25 µM came out at 90%.

`CC(C)(C)c1ccc(COc2cccc(Oc3ccc(OC(F)(F)F)cc3)c2/C=C/C(=O)O)cc1` [Compound 85]: under setting [2], the inhibition at 5 µM was found to be 40%, the inhibition at 10 µM is 61% and the inhibition at 25 µM was found to be 85%.

For `O=C(O)C(=O)N(Cc1ccc(O)cc1)c1ccc(-c2ccc(OC(F)(F)F)cc2)cc1` [Compound 181], under setting [2], the inhibition at 5 µM amounted to 10%, the inhibition at 10 µM amounted to 11% and the inhibition at 25 µM stood at 31%.

On to `CC(C)(C)c1ccc(-c2ccc(N(Cc3ccccc3OC(F)(F)F)C(=O)C(=O)O)cc2)cc1` [Compound 202], for which, under setting [2], the inhibition at 5 µM was 70%, the inhibition at 10 µM came out at 94% and the inhibition at 25 µM stood at 98%.

Regarding `O=C(O)C(=O)N(CCCCc1ccccc1)c1ccc(N2CCCCC2)c(-c2ccc(OC(F)(F)F)cc2)c1` [Compound 247], under setting [2], the inhibition at 5 µM worked out at 93% and the inhibition at 10 µM was 99%.

For `CC(C)(C)c1ccc(CN(C(=O)C(=O)O)c2ccc(-c3ccccc3OC(F)(F)F)cc2)cc1` [Compound 201], under setting [2], the inhibition at 5 µM is 64%, the inhibition at 10 µM was 89% and the inhibition at 25 µM turned out to be 82%.

For `CC(C)(C)c1ccc(CN(C(=O)C(=O)O)c2ccc(-c3ccc(OC(F)(F)F)cc3)cc2OC(F)(F)F)cc1` [Compound 151], under setting [2], the inhibition at 5 µM turned out to be 35%, the inhibition at 10 µM was found to be 80% and the inhibition at 25 µM is 90%.

On to `CCC(CC)Oc1ccc(N(CCCc2ccccc2)C(=O)C(=O)O)c(-c2ccc(OC(F)(F)F)cc2)c1` [Compound 237], for which, under setting [2], the inhibition at 5 µM stood at 75% and the inhibition at 10 µM came out at 92%.

Turning to `O=C(O)C(=O)N(Cc1ccc(Cl)cc1Cl)c1ccc(-c2ccc(OC(F)(F)F)cc2)cc1` [Compound 144], under setting [2], the inhibition at 5 µM was 3%, the inhibition at 10 µM turned out to be 22% and the inhibition at 25 µM came to 76%.

`Cc1cc(-c2ccc(OC(F)(F)F)cc2)cc(N(Cc2ccc(C(C)(C)C)cc2)C(=O)C(=O)O)c1` [Compound 178]: under setting [2], the inhibition at 5 µM was 56%, the inhibition at 10 µM was 88% and the inhibition at 25 µM is 88%.

Take `CC(C)(C)c1ccc(COc2ccc(OCc3ccc(OC(F)(F)F)cc3)cc2CCC(=O)O)cc1` [Compound 414]: under setting [2], the inhibition at 5 µM was 33%, the inhibition at 10 µM turned out to be 67% and the inhibition at 25 µM was 96%.

On to `O=C(O)C(=O)N(CCCCCc1ccccc1)c1ccc(-c2ccc(OC(F)(F)F)cc2)cc1` [Compound 228], for which, under setting [2], the inhibition at 5 µM worked out at 45%, the inhibition at 10 µM stood at 71% and the inhibition at 25 µM came out at 95%.

For the molecule `O=C(O)CCc1cc(-c2ccc(OC(F)(F)F)cc2)ccc1OCCCOc1ccccc1` [Compound 103], under setting [2], the inhibition at 5 µM was 33%, the inhibition at 10 µM stood at 57% and the inhibition at 25 µM was found to be 89%.

Turning to `Cc1ccc(-c2cccc([N+](=O)[O-])c2)cc1N(Cc1ccc(C(C)(C)C)cc1)C(=O)C(=O)O` [Compound 138], under setting [2], the inhibition at 10 µM is 4% and the inhibition at 25 µM amounted to 61%.

Take `O=C(O)/C=C/c1cc(-c2ccc(OC(F)(F)F)cc2)ccc1OCc1cccc(C(F)(F)F)c1` [Compound 57]: under setting [1], the inhibition at 5 µM was found to be 24%, the inhibition at 10 µM was 53% and the inhibition at 25 µM was found to be 82%.

As for `CC(C)(C)c1ccc(CN(C(=O)CCC(=O)O)c2ccc(-c3ccc(OC(F)(F)F)cc3)cc2)cc1` [Compound 609], under setting [2], the inhibition at 5 µM was determined as 38%, the inhibition at 10 µM was 69% and the inhibition at 25 µM is > 99%.

Take `CC(C)Oc1ccc(N(CCCc2ccccc2)C(=O)C(=O)O)c(-c2ccc(OC(F)(F)F)cc2)c1` [Compound 239]: under setting [2], the inhibition at 5 µM was determined as 43%, the inhibition at 10 µM is 80% and the inhibition at 25 µM turned out to be 98%.

With `CC(C)(C)c1ccc(Oc2ccc(Oc3ccc(OC(F)(F)F)cc3)cc2/C=C/C(=O)O)cc1` [Compound 99], under setting [2], the inhibition at 5 µM was 31%, the inhibition at 10 µM was 66% and the inhibition at 25 µM worked out at 99%.

For the molecule `CC(C)(C)c1ccc(CN(C(=O)C(=O)O)c2cccc(OCc3ccc(OC(F)(F)F)cc3)c2)cc1` [Compound 619], under setting [2], the inhibition at 5 µM came to 48%, the inhibition at 10 µM came out at 83% and the inhibition at 25 µM came out at 92%.

`Cc1cc(-c2ccc(OC(F)(F)F)cc2)ccc1N(Cc1ccc(C(C)(C)C)cc1)C(=O)C(=O)O` [Compound 146]: under setting [2], the inhibition at 5 µM worked out at 33%, the inhibition at 10 µM was determined as 73% and the inhibition at 25 µM came to 90%.

`CCCCCOc1ccc(N(CCCCc2ccccc2)C(=O)C(=O)O)cc1-c1ccc(OC(F)(F)F)cc1` [Compound 244]: under setting [2], the inhibition at 5 µM turned out to be 71% and the inhibition at 10 µM was 91%.

As to `O=C(O)/C=C/c1c(Oc2ccc(OC(F)(F)F)cc2)cccc1Oc1ccc(OC(F)(F)F)cc1` [Compound 97], under setting [2], the inhibition at 5 µM amounted to 30%, the inhibition at 10 µM turned out to be 40% and the inhibition at 25 µM worked out at 53%.
